{
  "source": "patent US20250160718A1",
  "about": "“SYSTEMS AND METHODS FOR HIGH-DENSITY LONG-TERM INTRACELLULAR ELECTROPHYSIOLOGY” (President and Fellows of Harvard College, priority 2022, published 2025)",
  "key": {"MDCK cells [1]": {"tested_on": "MDCK cells", "procedure": "This example describes a technique that uses cross-electrode impedance mapping to quantify adhesion or adherence of cells in a cell culture. The terms “adhesion” and “adherence” may be used interchangeably herein.\nIn this example, ethylenediaminetetraacetic acid (EDTA) was applied to the cells. EDTA is a calcium chelator that removes Ca^2+ needed for integrin proteins to maintain cell adhesion. With EDTA applied, the cells quickly detached over a duration of time of about 50 min. The EDTA was then washed out by adding normal culture media, where the cells re-attached over a duration of time of about 200 min.\nFIG. 6b is a data plot showing mean normalized impedance values over time for different regions of a map 601 of an electrode array in the cell culture. FIG. 6c show histograms of the normalized impedance values before, during, and after a washout of EDTA across the electrode array."}, "MDCK cells [2]": {"tested_on": "MDCK cells", "assay": "Wound healing assay (electrochemical patterning and cross-electrode impedance mapping of regrowth)", "format": "cell-based, Canine", "conditions": "1 μM, over the course of 72 hours; control culture shows regrowth after 72 hours", "excerpt": "This example describes a combined application of cross-electrode impedance mapping and cell patterning for a wound healing assay. Such assays may be used to gauge cell growth rate and metabolism and may be useful for screening drugs affecting these parameters. Compared to the electrochemical patterning described herein, other tools mechanically generate a wound in a cell culture via a mechanical scratch which is both difficult to control and limiting in terms of wound pattern.\nIn this example, a wound is made in MDCK cells and then growth is mapped in real time. […] These patterns were defined by applying electrode currents of −10 nA for 40 s versus a Ag/AgCl pseudo reference electrode. The regrowth of the culture was then measured using the impedance mapping method."}},
  "data": [
    {"smiles": "O=C(O)CN(CCN(CC(=O)O)CC(=O)O)CC(=O)O", "note": "[EDTA, ethylenediaminetetraacetic acid]", "values": [
      {"measurement": "duration of time over which the cells detached", "setting": "MDCK cells [1]; 5 mM EDTA application", "value": "about 50 min"},
      {"measurement": "duration of time over which the cells re-attached after washout", "setting": "MDCK cells [1]; EDTA washed out by adding normal culture media", "value": "about 200 min"}
    ]},
    {"smiles": "C=C1[C@@H](C)[C@H]2[C@H](Cc3ccccc3)NC(=O)[C@]23OC(=O)/C=C/[C@H](O)CCC[C@@H](C)C/C=C/[C@H]3[C@@H]1O", "note": "[cytochalasin B]", "values": [
      {"measurement": "regrowth of the culture into the wound", "setting": "MDCK cells [2]", "value": "very little growth"}
    ]}
  ]
}
